In brackets after ≈: the same amount, converted by molar mass.
How the values were obtained:
Format in all cases: functional
[1] = tested on: Pseudomonas aeruginosa; test: Antibacterial activity against Pseudomonas aeruginosa after 18 hrs by broth microdilution method
[2] = tested on: Bacillus subtilis; test: Antibacterial activity against Bacillus subtilis after 18 hrs by broth microdilution method
[3] = tested on: Escherichia coli; test: Antibacterial activity against Escherichia coli after 18 hrs by broth microdilution method
[4] = tested on: Staphylococcus aureus; test: Antibacterial activity against Staphylococcus aureus after 18 hrs by broth microdilution method

| SMILES | MIC50 [1] | MIC50 [2] | MIC50 [3] | MIC50 [4] |
| --- | --- | --- | --- | --- |
| O=C(CSC(=S)N[C@H]1CCOC1=O)Nc1ccc(Br)cc1 | 54.5 µg/mL (≈ 140 µM) | 30.2 µg/mL (≈ 77.7 µM) | 24.9 µg/mL (≈ 63.9 µM) | 3.69 µg/mL (≈ 9.48 µM) |
| CCCCCCCCSC(=S)N[C@H]1CCOC1=O | > 128 µg/mL | > 128 µg/mL | > 128 µg/mL | > 128 µg/mL |
| O=C(CSC(=S)N[C@H]1CCOC1=O)Nc1ccccc1Cl | > 128 µg/mL | 9.63 µg/mL (≈ 27.9 µM) | > 128 µg/mL | 5.62 µg/mL (≈ 16.3 µM) |
| CCCCCCSC(=S)N[C@H]1CCOC1=O | > 128 µg/mL | > 128 µg/mL | > 128 µg/mL | > 128 µg/mL |
| CCCCSC(=S)N[C@H]1CCOC1=O | 44.6 µg/mL (≈ 191 µM) | > 128 µg/mL | > 128 µg/mL | > 128 µg/mL |
| CCCCCCCCCCCCCCSC(=S)N[C@H]1CCOC1=O | > 128 µg/mL | > 128 µg/mL | 67.8 µg/mL (≈ 182 µM) | > 128 µg/mL |
| CCSC(=S)N[C@H]1CCOC1=O | 34.6 µg/mL (≈ 168 µM) | > 128 µg/mL | 25.2 µg/mL (≈ 123 µM) | > 128 µg/mL |
| CCCCCCCCCCCCSC(=S)N[C@H]1CCOC1=O | > 128 µg/mL | > 128 µg/mL | > 128 µg/mL | 50.6 µg/mL (≈ 146 µM) |
| CSC(=S)N[C@H]1CCOC1=O | 31.9 µg/mL (≈ 167 µM) | > 128 µg/mL | 17.6 µg/mL (≈ 92 µM) | > 128 µg/mL |

Other lines, results leading:

| MIC50 [1] | MIC50 [2] | MIC50 [3] | MIC50 [4] | SMILES |
| --- | --- | --- | --- | --- |
| > 128 µg/mL | > 128 µg/mL | > 128 µg/mL | 3.5 µg/mL (≈ 10.1 µM) | O=C(CSC(=S)N[C@H]1CCOC1=O)Nc1ccc(Cl)cc1 |
| > 128 µg/mL | > 128 µg/mL | > 128 µg/mL | > 128 µg/mL | O=C(CSC(=S)N[C@H]1CCOC1=O)Nc1cccc(Cl)c1 |
| > 128 µg/mL | > 128 µg/mL | 40.5 µg/mL (≈ 123 µM) | 6.53 µg/mL (≈ 19.9 µM) | O=C(CSC(=S)N[C@H]1CCOC1=O)Nc1ccccc1F |
| 59.9 µg/mL (≈ 169 µM) | 6.29 µg/mL (≈ 17.7 µM) | 12.8 µg/mL (≈ 36 µM) | 8.67 µg/mL (≈ 24.4 µM) | O=C(CSC(=S)N[C@H]1CCOC1=O)Nc1cccc([N+](=O)[O-])c1 |
| > 128 µg/mL | > 128 µg/mL | > 128 µg/mL | > 128 µg/mL | Cc1cccc(NC(=O)CSC(=S)N[C@H]2CCOC2=O)c1C |
| < 0.25 µg/mL | < 0.25 µg/mL | < 0.25 µg/mL | < 0.25 µg/mL | C[C@H]1COc2c(N3CCN(C)CC3)c(F)cc3c(=O)c(C(=O)O)cn1c23.C[C@H]1COc2c(N3CCN(C)CC3)c(F)cc3c(=O)c(C(=O)O)cn1c23.O [LEVOFLOXACIN] |
| 48.5 µg/mL (≈ 156 µM) | 47.9 µg/mL (≈ 154 µM) | > 128 µg/mL | 7.72 µg/mL (≈ 24.9 µM) | O=C(CSC(=S)N[C@H]1CCOC1=O)Nc1ccccc1 |
| > 128 µg/mL | 5.6 µg/mL (≈ 14.8 µM) | 21 µg/mL (≈ 55.4 µM) | 4.9 µg/mL (≈ 12.9 µM) | O=C(CSC(=S)N[C@H]1CCOC1=O)Nc1ccc(Cl)cc1Cl |
| > 128 µg/mL | > 128 µg/mL | 54.2 µg/mL (≈ 159 µM) | 9.52 µg/mL (≈ 28 µM) | COc1ccc(NC(=O)CSC(=S)N[C@H]2CCOC2=O)cc1 |
| 37.2 µg/mL (≈ 115 µM) | > 128 µg/mL | > 128 µg/mL | > 128 µg/mL | Cc1cccc(NC(=O)CSC(=S)N[C@H]2CCOC2=O)c1 |
| 63.8 µg/mL (≈ 197 µM) | > 128 µg/mL | 30.6 µg/mL (≈ 94.3 µM) | 3.49 µg/mL (≈ 10.8 µM) | Cc1ccc(NC(=O)CSC(=S)N[C@H]2CCOC2=O)cc1 |
| > 128 µg/mL | 1.44 µg/mL (≈ 3.81 µM) | > 128 µg/mL | 5.81 µg/mL (≈ 15.3 µM) | O=C(CSC(=S)N[C@H]1CCOC1=O)Nc1cccc(C(F)(F)F)c1 |
